Measured values from US20200270225A1, “Chiral Diacylhydrazine Ligands for Modulating the Expression of Exogenous Genes via an Ecdysone Receptor Complex” (Intrexon Corporation, priority 2007, published 2020).
Where two headings read alike, the source gives them in different places.

Experiments:
[1] = target: wild-type Choristoneura fumiferana EcR (D, E and F domains) (Choristoneura fumiferana, UniProt O77240); assay type: cell-based; details: WT-CtEcR, 3T3 Cells; for RMFI (relative maximum fold induction): relative to GS-E ligand
Summary of the method: (§1)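 NIH3T3 cells were transiently co-transfected with GAL4-DBD fused to CfEcR DEF domains (wild-type or V390I/Y410E/E274V), VP16-AD fused to chimeric human/Locusta RXR, and a GAL4-response luciferase reporter. Ligand was given at 8 doses, 0.01–33 µM, 0.33% DMSO, luciferase read at 48 h. EC50 came from fold induction over DMSO via three-parameter logistic fit; Relative Max FI was taken versus GS™-E ligand.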

[2] = target: T1, [V390I/Y410E/E274V]-CfEcR (Choristoneura fumiferana, UniProt O77240); assay type: cell-based; details: 3T3 Cells; for RMFI (relative maximum fold induction): relative to GS-E ligand
T1 construct: assay construct b835
Summary of the method: as §1

[3] = tested on: RheoSwitch® Therapeutic System (RTS) gene expression; assay: In vivo induction of RTS SEAP reporter in electroporated mice; design: species or system C57BL6 mice; details: intraperitoneal injection 26 nmol/mouse; monitored seventeen days
Text: The wild-type D, E, and F domains from spruce budworm Choristoneura fumiferana EcR (“CfEcR-DEF”; SEQ ID NO: 1) were mutated [V107 (gtt)→1107 (att) and Y127 (tac)→E127 (gag)] and fused to a GAL4 DNA binding domain (“Gal4DBD1-147”; SEQ ID NO: 2). Helices 1 through 8 of the EF domains from Homo sapiens RXRPβ (“HsRXRβ-EF”; nucleotides 1-465 of SEQ ID NO: 4) and helices 9 through 12 of the EF domains of Locusta migratoria Ultraspiracle Protein (“LmUSP-EF”; nucleotides 403-630 of SEQ ID NO: 5) were fused to the transactivation domain from VP16 (“VP16AD”; SEQ ID NO: 6), which regulates a reporter gene human secreted alkaline phosphatase (“SEAP”, SEQ ID NO: 12) that was placed under the control of a 6xGAL4 response element (SEQ ID NO: 13) and a transthyretin promoter (SEQ ID NO: 14). Each element of the gene switch was on a separate plasmid. Receptor expression was under the control of a CMV promoter (SEQ ID NO: 15). Induction was evaluated by the amount of reporter protein expressed in the presence of ligand.
SEAP expression in serum of mice was evaluated after electroporation of the gene switch into mouse quadriceps. Mice were anesthetized with 2 μL/g of a mixture of ketamine (100 mg/mL) and xylazine (20 mg/mL). Animals were then shaved, DNA vectors injected into the muscle in a volume of 2×50 μL polyglutamic acid (12 mg/mL water), electrode conductivity gel applied, and an electrode caliber (1 cm×1 cm; model 384) was placed on hind leg. The muscle was electroporated with 200 V/cm, 8 times, for 20 msec/pulse, at 1 sec time intervals. The transverse electrical field direction was reversed after the animals received half of the pulses. Electroporation was performed with an ECM 830 electroporator from BTX Molecular Delivery Systems.
[…] In other experiments the concentration of ligand was decreased to 26 nmol/50 μL of DMSO/mouse. […]
Mouse serum was obtained by centrifugation of blood acquired by retroorbital bleeding with a small glass capillary tube. SEAP quantification was determined using a Clontech Great Escape chemiluminescence kit and by comparison with the Clontech SEAP standard. […]

Row | SMILES | EC50 ([1]; S) | RMFI (relative maximum fold induction) ([1]; S) | EC50 ([2]; S) | RMFI (relative maximum fold induction) ([2]; S) | RTS gene reporter (SEAP) expression in mouse serum [3] | melting point | EC50 ([1]; R) | RMFI (relative maximum fold induction) ([1]; R) | EC50 ([2]; R) | RMFI (relative maximum fold induction) ([2]; R)
1 | CCC[C@H](N(NC(=O)c1cccc(OC)c1CC)C(=O)c1cc(C)cc(C)c1)C(C)(C)C [Example 31, (S)-3,5-Dimethyl-benzoic acid N-(1-tert-butyl-butyl)-N′-(2-ethyl-3-methoxy-benzoyl)-hydrazide] | 136 nM | 0.52 | ~30 nM | 0.57 | does not induce RTS gene reporter expression | – | – | – | – | –
2 | C=CC[C@H](N(NC(=O)OCc1ccccc1)C(=O)c1cc(C)cc(C)c1)C(C)(C)C [Example 31.4, (S)—N′-(1-tert-butyl-but-3-enyl)-N′-(3,5-dimethyl-benzoyl)-hydrazine carboxylic acid benzyl ester] | > 10000 nM | – | > 10000 nM | – | – | 150 to 151.5 °C | – | – | – | –
3 | CCC[C@@H](N(NC(=O)c1cccc(OC)c1)C(=O)c1cc(C)cc(C)c1)C(C)(C)C [Example 9, (R)-3,5-Dimethyl-benzoic acid N-(1-tert-butyl-butyl)-N′-(3-methoxy-benzoyl)-hydrazide] | – | – | – | – | – | 110 to 111 °C | 101 nM | 0.81 | 1.4 nM | 0.70
4 | CCC[C@@H](N(NC(=O)c1ccc(C)cc1)C(=O)c1cc(C)cc(C)c1)C(C)(C)C [Example 11, (R)-3,5-Dimethyl-benzoic acid N-(1-tert-butyl-butyl)-N′-(4-methyl-benzoyl)-hydrazide] | – | – | – | – | – | 60 to 62 °C | ~20 nM | 0.74 | ~1 nM | 0.90
5 | CCC[C@@H](N(NC(=O)c1cccc(OC)c1C)C(=O)c1cc(C)cc(C)c1)C(C)(C)C [Example 29, (R)-3,5-Dimethyl-benzoic acid N-(1-tert-butyl-butyl)-N′-(3-methoxy-2-methyl-benzoyl)-hydrazide] | – | – | – | – | – | 141 to 143 °C | ~1 nM | 1.08 | 0.078 nM | 1.05
